The values that follow come from US10632125B2, “MTH1 inhibitors for treatment of inflammatory and autoimmune conditions” (THOMAS HELLEDAYS STIFTELSE FÖR MEDICINSK FORSKNING, priority 2014, dated 2020).

One assay relates to activated T-lymphocytes. The experiment in a line: Cellular assay, primary T-lymphocytes activated with CD3/CD28 Dynabeads. It is filed as cell-based, human. On the procedure:
(§1) Cellular Assay and IC50 Value Determination
Primary T-lymphocytes are isolated from donated human blood and thereafter activated with CD3/CD28 Dynabeads. The T-lymphocytes are treated with an MTH1 inhibitor, positive control or vehicle for 24-96 hrs. Cell viability can be measured by using standard assays, such as for instance a resazurin assay. In some experiments, the cells are stained with Cell Trace Violet at the start of the culture. The dye is diluted as the cells divide and gives a measurement of cell proliferation (see FIG. 1 for an example).

Assay [1] relates to unactivated T-lymphocytes. The experiment in a line: Cellular assay, unactivated primary T-lymphocytes. Type of assay: cell-based, human. On the procedure: as §1
The T-lymphocytes are treated with an MTH1 inhibitor, positive control or vehicle for 24-96 hrs. Cell viability can be measured by using standard assays, such as for instance a resazurin assay. In some experiments, the cells are stained with Cell Trace Violet at the start of the culture. The dye is diluted as the cells divide and gives a measurement of cell proliferation (see FIG. 1 for an example).

The target of the next assay is MTH1 (Homo sapiens, UniProt P36639). The experiment in a line: MTH1 enzymatic assay (malachite green, coupled to pyrophosphatase). Type of assay: biochemical. The note with it: dGTP 100 μM, MTH1 6 nM; 96- or 384-well format; read-out: IC50.

SMILES strings stand for the structures.

For the compound `Cc1c(Cl)cccc1-c1cc(NCCc2ccc(S(N)(=O)=O)cc2)nc(N)n1` [Example 297, 4-(2-{[2-amino-6-(3-chloro-2-methylphenyl)pyrimidin-4-yl]amino}ethyl)benzene-1-sulfonamide], the “effect on activated T-lymphocytes (FIG. 1)” value in the assay with activated T-lymphocytes was “selectively kills”. Besides, in assay [1], the “effect on unactivated T-lymphocytes (FIG. 1)” value was “unaffected”. In addition, on MTH1, the half-inhibitory concentration (IC50) is under 200 nM.
For the compound `COC(=O)C1CCC(CNc2cc(-c3cccc(Cl)c3C)nc(N)n2)CC1` (centres unmarked) [Example 731, methyl 4-[[[2-amino-6-(3-chloro-2-methyl-phenyl)pyrimidin-4-yl]amino]methyl]cyclohexanecarboxylate], at MTH1, the IC50 was under 200 nM.
Same read-out and setting: the result for `Cc1c(Cl)cccc1-c1cc(NCCc2cccnc2)nc(N)n1` [Example 733, 6-(3-chloro-2-methyl-phenyl)-N4-[2-(3-pyridyl)ethyl]pyrimidine-2,4-diamine] reads under 200 nM; that for `Cc1c(Cl)cccc1-c1cc(NCCc2cnccn2)nc(N)n1` [Example 735, 6-(3-chloro-2-methyl-phenyl)-N4-(2-pyrazin-2-ylethyl)pyrimidine-2,4-diamine], under 200 nM; that for `Cc1c(Cl)cccc1-c1cc(NCCc2ccc(Br)cc2)nc(N)n1` [Example 736, N4-[2-(4-bromophenyl)ethyl]-6-(3-chloro-2-methylphenyl)pyrimidine-2,4-diamine], under 200 nM.
Still for that read-out and setting: for `Cc1c(Cl)cccc1-c1nc(N)nc2c1CCN2` [Example 742, 4-(3-chloro-2-methylphenyl)-5H,6H,7H-pyrrolo[2,3-d]pyrimidin-2-amine] the value was under 200 nM.
Still for that read-out and setting: the result for `Cc1c(Cl)cccc1-c1nc(N)nc2c1C[C@@H](C)N2` [Example 743, (6R)-4-(3-Chloro-2-methylphenyl)-6-methyl-5H,6H,7H-pyrrolo[2,3-d]pyrimidin-2-amine] reads under 200 nM.
On to `Cc1c(Cl)cccc1-c1cc(NCCOc2ccc(Cl)cn2)nc(N)n1` [Example 746, 6-(3-chloro-2-methylphenyl)-N4-{2-[(5-chloropyridin-2-yl)oxy]ethyl}pyrimidine-2,4-diamine], for which the IC50 at MTH1 is under 200 nM.
Consider `Cc1c(Cl)cccc1-c1cc(NCCOc2ccc(C#N)cc2)nc(N)n1` [Example 747, 4-(2-{[2-amino-6-(3-chloro-2-methylphenyl)pyrimidin-4-yl]amino}ethoxy)benzonitrile], for which the concentration for half-maximal inhibition (IC50) at MTH1 was under 200 nM.
